# Experimental data as given in ChEMBL document CHEMBL6109153, “Development of Membrane-Targeting Osthole Derivatives Containing Pyridinium Quaternary Ammonium Moieties with Potent Anti-Methicillin-Resistant Staphylococcus aureus Properties” (J Med Chem, 2025).
# What was measured:
# [1] = tested on: Staphylococcus aureus; test: Induction of cell permeability in methicillin-resistant Staphylococcus aureus M11 assessed as fold increase in fluorescence intensity at 32 times MIC by SYTOX Green dye based analysis relative to control; assay type: functional
# [2] = tested on: Staphylococcus aureus; test: Induction of resistance development in Staphylococcus aureus ATCC 29213 assessed as fold change in MIC at 0.5 times MIC measured after 18 passages by broth microdilution method; assay type: functional
# [3] = tested on: Staphylococcus aureus; test: Antibacterial activity against methicillin-resistant Staphylococcus aureus M16 incubated for 16 to 20 hrs by broth microdilution method; assay type: functional; conditions: time 16-20 hrs
# [4] = tested on: Staphylococcus aureus; test: Antibacterial activity against methicillin-resistant Staphylococcus aureus M22 incubated for 16 to 20 hrs by broth microdilution method; assay type: functional; conditions: time 16-20 hrs
# [5] = tested on: Staphylococcus aureus; test: Antibacterial activity against methicillin-resistant Staphylococcus aureus M12 incubated for 16 to 20 hrs by broth microdilution method; assay type: functional; conditions: time 16-20 hrs
# [6] = tested on: Staphylococcus aureus; test: Antibacterial activity against Staphylococcus aureus ATCC 29213 incubated for 16 to 20 hrs by broth microdilution method; assay type: functional; conditions: time 16-20 hrs
# [7] = tested on: Staphylococcus aureus; test: Antibacterial activity against methicillin-resistant Staphylococcus aureus M23 incubated for 16 to 20 hrs by broth microdilution method; assay type: functional; conditions: time 16-20 hrs
# [8] = tested on: Staphylococcus aureus; test: Antibacterial activity against methicillin-resistant Staphylococcus aureus M17 incubated for 16 to 20 hrs by broth microdilution method; assay type: functional; conditions: time 16-20 hrs
# [9] = tested on: Staphylococcus aureus; test: Antibacterial activity against methicillin-resistant Staphylococcus aureus M13 incubated for 16 to 20 hrs by broth microdilution method; assay type: functional; conditions: time 16-20 hrs
# [10] = tested on: Staphylococcus aureus; test: Antibacterial activity against methicillin-resistant Staphylococcus aureus M11 incubated for 16 to 20 hrs by broth microdilution method; assay type: functional; conditions: time 16-20 hrs
# [11] = tested on: Staphylococcus aureus; test: Antibacterial activity against methicillin-resistant Staphylococcus aureus M20 incubated for 16 to 20 hrs by broth microdilution method; assay type: functional; conditions: time 16-20 hrs
# [12] = tested on: Escherichia coli; test: Antibacterial activity against Escherichia coli ATCC 25922 incubated for 16 to 20 hrs by broth microdilution method; assay type: functional; conditions: time 16-20 hrs
# [13] = Hemolytic activity against sheep erythrocytes; assay type: toxicity, cell-based, Ovis aries, Erythrocyte
# [14] = tested on: Staphylococcus aureus; test: Antibacterial activity against methicillin-resistant Staphylococcus aureus M21 incubated for 16 to 20 hrs by broth microdilution method; assay type: functional; conditions: time 16-20 hrs
# [15] = tested on: Staphylococcus aureus; test: Antibacterial activity against methicillin-resistant Staphylococcus aureus M14 incubated for 16 to 20 hrs by broth microdilution method; assay type: functional; conditions: time 16-20 hrs
SMILES,fold change (FC) [1],fold change (FC) [2],MIC [3] [µg/mL],MIC [4] [µg/mL],MIC [5] [µg/mL],MIC [6] [µg/mL],MIC [7] [µg/mL],MIC [8] [µg/mL],MIC [9] [µg/mL],MIC [10] [µg/mL],MIC [11] [µg/mL],MIC [12] [µg/mL],HC50 [13] [µg/mL],MIC [14] [µg/mL],MIC [15] [µg/mL]
CC[C@H](C)[C@H](NC(=O)CN)C(=O)NCC(=O)N[C@@H](C)C(=O)N[C@H](C(=O)N[C@@H](CC(C)C)C(=O)N[C@@H](CCCCN)C(=O)N[C@H](C(=O)N[C@@H](CC(C)C)C(=O)N[C@H](C(=O)N[C@H](C(=O)NCC(=O)N[C@@H](CC(C)C)C(=O)N1CCC[C@H]1C(=O)N[C@@H](C)C(=O)N[C@@H](CC(C)C)C(=O)N[C@H](C(=O)N[C@@H](CO)C(=O)N[C@@H](Cc1c[nH]c2ccccc12)C(=O)N[C@H](C(=O)N[C@@H](CCCCN)C(=O)N[C@@H](CCCNC(=N)N)C(=O)N[C@@H](CCCCN)C(=O)N[C@@H](CCCNC(=N)N)C(=O)N[C@@H](CCC(N)=O)C(=O)N[C@@H](CCC(N)=O)C(N)=O)[C@@H](C)CC)[C@@H](C)CC)[C@@H](C)O)[C@@H](C)O)C(C)C)C(C)C [MELITTIN],~8,,,,,,,,,,,,,,
CCn1cc(C(=O)O)c(=O)c2cc(F)c(N3CCNCC3)cc21 [NORFLOXACIN],,128,,,,,,,,,,,,,
CC(C)=CCc1c(OCCCCCSc2cc[n+](CC(=O)N(C)c3ccccc3)cc2)ccc2ccc(=O)oc12.[Br-],,,2,4,4,2,2,8,4,2,2,> 128,> 160,4,2
CC(C)=CCc1c(OCCCSc2cc[n+](CC(=O)N(CC(C)C)CC(C)C)cc2)ccc2ccc(=O)oc12.[Br-],,,2,2,4,2,2,4,4,1,2,> 128,> 160,2,2
CCCCCCNC(=O)C[n+]1ccc(SCCCCOc2ccc3ccc(=O)oc3c2CC=C(C)C)cc1.[Br-],,,2,2,2,1,2,1,2,1,1,32,> 160,2,1
CC(C)=CCc1c(OCCCCCSc2cc[n+](CC(=O)N3CCOCC3)cc2)ccc2ccc(=O)oc12.[Br-],,,16,32,32,32,32,32,64,16,16,> 128,> 160,32,16
CCCCNC(=O)C[n+]1ccc(SCCCOc2ccc3ccc(=O)oc3c2CC=C(C)C)cc1.[Br-],,,4,4,8,2,8,8,8,4,4,> 128,> 160,4,4
CCCCNC(=O)C[n+]1ccc(SCCCCOc2ccc3ccc(=O)oc3c2CC=C(C)C)cc1.[Br-],,,2,4,4,8,4,4,4,2,2,> 128,> 160,4,2
CCCCN(CCCC)C(=O)C[n+]1ccc(SCCCCOc2ccc3ccc(=O)oc3c2CC=C(C)C)cc1.[Br-],,,1,0.5,2,1,0.5,1,2,1,0.5,> 128,> 160,0.5,1
